One assay deals with HL-60. Description: Cytotoxicity against human HL60 by MTT assay. It is filed as functional, cell-based.
Another assay deals with HepG2. The assay can be described thus: Cytotoxicity against human HepG2 by MTT assay. It is filed as functional, cell-based. Background: Formazan colour is commonly taken as a measure of viable cells.
For assay [1], the system named is Radical scavenging activity. The assay can be described thus: Antioxidant activity assessed as DPPH radical scavenging activity. It is filed as functional. On the technique in general: Loss of DPPH colour is used to gauge radical scavenging.
Assay [2] is described as follows: Antioxidant activity assessed as ABTS radical scavenging activity by decolorization assay. In kind it is functional.

SMILES strings stand for the structures.

As to `C/C=C(/C)C(=O)OCc1c2c(c(OC)c3occ(C)c13)C(=O)[C@H]1O[C@H]1[C@@H]2C`, the IC50 (usually the concentration needed to halve the response being measured) is 49.8 µM in the assay on HL-60, 27.8 µM with HepG2, over 200 µM in assay [1] and over 200 µM in assay [2].

Take `CO[C@@]12[C@H](COC(N)=O)C3=C(C(=O)C(C)=C(N)C3=O)N1C[C@@H]1N[C@@H]12` [MITOMYCIN]: the IC50 is 1.5 µM in the assay on HL-60 and 5.4 µM in the assay with HepG2.

`Cc1c(C)c2c(c(C)c1O)CCC(C)(C(=O)O)O2` (configuration not stated) [TROLOX]: the IC50 in assay [1] and in assay [2] was 13.2 µM in each case.

Turning to `C/C=C(/C)C(=O)OCc1c(C(C)=O)c(O)c(OC)c2c1[C@@H](C)CC=C2`, the IC50 in assay [1] and in assay [2] was over 200 µM each time.

Regarding `CCCCCCCCCCCCCCCC(=O)O[C@H]1CC(C)(C)C2=CC(=O)O[C@]2(C)C1`, the IC50 with HL-60 was 47.5 µM; in assay [1] it was over 200 µM; in assay [2] it was over 200 µM.

Regarding `C/C=C(/C)C(=O)OCc1c(C(C)=O)c(O)c(OC)c2c1[C@@H](C)[C@@H]1O[C@@H]1[C@H]2O`, the IC50 in assay [1] and in assay [2] was over 200 µM each time.

Consider `C/C=C(/C)C(=O)OCc1c(C(C)=O)c(O)c(OC)c2c1[C@@H](C)[C@@H](O)C=C2`, for which the IC50 in assay [1] and in assay [2] was over 200 µM in each case.

The record behind these values is ChEMBL document CHEMBL1641394, “Terpenoids from the aerial parts of Parasenecio deltophylla” (J Nat Prod, 2010).
